Laboratory results from article PMC6685155, “Simultaneous UPLC–TQ-MS/MS determination of six active components in rat plasma: application in the pharmacokinetic study of Cyclocarya paliurus leaves” (Chinese Medicine, 2019).

Assay: Pharmacokinetic study in rats after oral administration of the CP extract (UPLC–TQ-MS/MS of plasma)
Type: in vivo
Details: male, Sprague-Dawley, rat plasma, single oral gavage of CP extract 10.5 g/kg, n=6, mean ± SD; for Cmax: non-compartmental
Method: Plasma samples were thawed at room temperature before analysis. Then, 10 μl of IS solution (20 μg/ml) and 200 μl of methanol were added to the plasma sample (90 μl) in a 1.5 ml Eppendorf tube. The mixture was vortexed for 1 min and centrifuged at 12,000×g for 10 min at 4 °C to deproteinize. Thereafter, 2 μl of the supernatant was injected into the UPLC–TQ/MS system for analysis.
Six healthy male Sprague–Dawley rats were fasted for 12 h with free access to water prior to the experiment. The CP extract was administered to rats by oral gavage at a dose of 10.5 g/kg body weight. Blood samples of approximately 0.5 ml were collected at 15 and 30 min and at 1 h, 2 h, 3 h, 4 h, 6 h, 8 h, 10 h, 12 h, and 24 h in heparinized centrifuge tubes from the ophthalmic vein using a sterile capillary tube under anesthesia after oral administration of the CP extract. Following centrifugation at 4000×g for 10 min at 4 °C, plasma samples were transferred to polypropylene tubes and stored at − 80 °C until analysis.
The concentrations of six analytes in plasma at different time points were expressed as mean ± SD, which was calculated from the daily calibration curve. All the pharmacokinetic parameters were processed through non-compartmental analysis using the DAS 3.0 pharmacokinetic program. The maximum plasma concentration (Cmax) and time to reach the maximum concentrations (Tmax) were obtained directly from the curve.

In the case of `O=C(O)[C@H]1O[C@@H](Oc2c(-c3ccc(O)c(O)c3)oc3cc(O)cc(O)c3c2=O)[C@H](O)[C@@H](O)[C@@H]1O` [Quercetin-3-O-glucuronide, quercetin-3-O-glucuronide], the AUC(0-inf) is reported as 13500 ng·h/mL, the AUC(0-t) is reported as 11000 ng·h/mL and the Tmax is reported as 0.33 ± 0.13 h. It also gave a half-life of 10 ± 3.31 h and a Cmax of 3710 ± 1590 ng/mL.
With `O=C(/C=C/c1ccc(O)c(O)c1)O[C@@H]1C[C@](O)(C(=O)O)C[C@@H](O)[C@H]1O` [Chlorogenic acid, chlorogenic acid] the AUC(0-inf) was 3580 ± 1200 ng·h/mL, the AUC(0-t) was 3310 ± 1060 ng·h/mL and the Tmax was 0.39 ± 0.13 h. The half-life was 2.54 ± 0.53 h and the Cmax was 4170 ± 1890 ng/mL.
Compound `O=c1c(O)c(-c2ccc(O)cc2)oc2cc(O)cc(O)c12` [Kaempferol, kaempferol] has an AUC(0-inf) of 325 ± 104 ng·h/mL, an AUC(0-t) of 242 ± 77 ng·h/mL and a Tmax of 0.67 ± 0.26 h. The half-life was 7.24 ± 1.63 h and the Cmax was 122 ± 49.9 ng/mL.
Compound `O=c1c(O)c(-c2ccc(O)c(O)c2)oc2cc(O)cc(O)c12` [Quercetin, quercetin] has an AUC(0-inf) of 91.7 ± 15.2 ng·h/mL, an AUC(0-t) of 79.8 ± 28.5 ng·h/mL and a Tmax of 0.46 ± 0.1 h. For the same compound, the half-life was 11.7 ± 6.01 h and the Cmax was 28.6 ± 8.23 ng/mL.
In the case of `O=C(/C=C/c1ccc(O)c(O)c1)O[C@@H]1C[C@@](O)(C(=O)O)C[C@@H](O)[C@@H]1O` [Neochlorogenic acid, neochlorogenic acid], the AUC(0-inf) is reported as 2470 ± 943 ng·h/mL, the AUC(0-t) is reported as 2450 ± 952 ng·h/mL and the Tmax is reported as 0.32 ± 0.12 h. It also gave a half-life of 4.54 ± 1.38 h and a Cmax of 4330 ± 1610 ng/mL.
